Conditions: in vivo

For OO [hydrogen peroxide], the “antibiotics use as fraction of the normal dose” value was “⅛” and the effect on mortality was “reduced mortality”.

From patent US12114657B1, “Compositions for use in animal housing” (priority 2017, dated 2024)
